Measurements taken from ChEMBL document CHEMBL1155181, “Structure-based design of substituted biphenyl ethylene ethers as ligands binding in the hydrophobic pocket of gp41 and blocking the helical bundle formation” (Bioorg Med Chem Lett, 2009).

Key:
[1] = tested on: Human immunodeficiency virus; assay: Inhibition of HIV gp41 hexamer bundle formation at 50 uM after 30 mins by size exclusion chromatography assay
[2] = tested on: Human immunodeficiency virus; assay: Inhibition of HIV gp41 six-helix bundle formation at 25 uM by FRET-based assay relative to ADS--J1
[3] = tested on: Human immunodeficiency virus; assay: Inhibition of HIV gp41 six-helix bundle formation at 25 uM by FRET-based assay relative to C18Aib
[4] = Inhibition of HIV gp41 hexamer bundle formation after 30 mins by size exclusion chromatography assay; design: species or system Human immunodeficiency virus
[5] = Inhibition of HIV gp41 hexamer bundle formation by ELISA; design: species or system Human immunodeficiency virus
[6] = Inhibition of HIV gp41 hexamer bundle formation after 30 mins by SEC-HPLC assay; design: species or system Human immunodeficiency virus

| SMILES | inhibition [1] [%] | inhibition [2] [%] | inhibition [3] [%] | IC50 ([4]; read-out: IC50) [µM] | IC50 [5] [µM] | IC50 [6] [µM] | IC50 [4] |
| --- | --- | --- | --- | --- | --- | --- | --- |
| COC(=O)c1ccc(CCOc2cccc(-c3cccc(-c4nn[nH]n4)c3)c2)c2ccccc12 | 95 | 67 | 75 | 31 |  |  |  |
| O=C(O)c1ccc(-c2c3nc(c(-c4ccc(C(=O)O)cc4)c4ccc([nH]4)c(-c4ccc(C(=O)O)cc4)c4ccc([nH]4)c(-c4ccc(C(=O)O)cc4)c4nc2C=C4)C=C3)cc1 |  |  |  |  | 1 | 0.9 |  |
| O=S(=O)(c1ccccc1)n1ccc2c(CCOc3cccc(-c4cccc(-c5nnn[nH]5)c4)c3)cccc21 | 100 |  |  | 32.9 |  |  |  |
| CC(C)(C)OC(=O)n1ccc2c(CCOc3cccc(-c4cccc(-c5nnn[nH]5)c4)c3)cccc21 | 100 |  |  |  |  |  | Not Active |
